Experimental data from patent US9234000B2, “Benzylamine derivatives as inhibitors of plasma kallikrein” (KalVista Pharmaceuticals Limited, priority 2011, dated 2016).
Values after ≈ are worked out from the molar mass of the structure shown. Where two headings read alike, the source gives them in different places.

Legend:
[1] = physchem; conditions: for solubility in PO4 buffer: pH 7
Experimental: Determination of the Kinetic Solubility in Phosphate Buffer
After shaking for approximately 30 seconds the reduction in light transmission of these samples, at 650 nm, was measured (Molecular Devices Spectromax UV/visible spectrophotometer). A second measurement was taken at approximately 30 seconds later.

[2] = target: Human plasma kallikrein (Homo sapiens (Human), UniProt P03952); assay: Determination of the IC50 for plasma kallikrein; type: biochemical; conditions: 37° C., read-out: IC50 (human PKal)
Sequence of Human plasma kallikrein (P03952 391-638): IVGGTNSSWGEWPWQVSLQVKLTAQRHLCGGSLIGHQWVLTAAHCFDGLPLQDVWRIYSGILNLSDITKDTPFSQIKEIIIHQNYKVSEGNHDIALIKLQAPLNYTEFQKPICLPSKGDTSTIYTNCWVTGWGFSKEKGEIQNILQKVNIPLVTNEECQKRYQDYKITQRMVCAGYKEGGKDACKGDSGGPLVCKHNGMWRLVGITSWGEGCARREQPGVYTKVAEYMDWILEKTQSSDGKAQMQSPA
Sequence of Human plasma kallikrein (P03952 20-390 partner): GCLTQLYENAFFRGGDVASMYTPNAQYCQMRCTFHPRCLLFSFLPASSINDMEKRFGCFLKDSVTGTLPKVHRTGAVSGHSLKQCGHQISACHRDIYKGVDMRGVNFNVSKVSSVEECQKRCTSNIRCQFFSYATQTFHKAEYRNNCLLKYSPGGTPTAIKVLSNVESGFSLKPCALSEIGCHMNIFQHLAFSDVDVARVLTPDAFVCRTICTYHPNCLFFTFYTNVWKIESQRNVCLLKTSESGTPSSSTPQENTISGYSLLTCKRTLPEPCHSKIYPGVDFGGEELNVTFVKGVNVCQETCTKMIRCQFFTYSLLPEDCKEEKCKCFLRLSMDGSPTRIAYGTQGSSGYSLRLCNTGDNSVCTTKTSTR
Method in brief: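 Human plasma kallikrein incubated at 37° C with fluorogenic substrate H-DPro-Phe-Arg-AFC and varying compound concentrations. Initial reaction rate followed by absorbance change at 410 nm to give residual activity and IC50.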

[3] = target: Human KLK1 (Homo sapiens (Human), UniProt P06870); assay: Determination of the IC50 for KLK1; type: biochemical; conditions: Human KLK1, 37° C., substrate H-DVal-Leu-Arg-AFC
Sequence of Human KLK1 (P06870 25-262): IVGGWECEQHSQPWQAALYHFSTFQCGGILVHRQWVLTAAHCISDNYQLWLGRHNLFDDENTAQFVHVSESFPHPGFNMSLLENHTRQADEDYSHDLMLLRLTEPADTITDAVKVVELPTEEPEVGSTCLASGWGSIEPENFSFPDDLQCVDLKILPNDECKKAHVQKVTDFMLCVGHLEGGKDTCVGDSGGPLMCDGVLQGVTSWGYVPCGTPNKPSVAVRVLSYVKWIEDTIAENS
Method in brief: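 Human KLK1 incubated at 37 °C with fluorogenic substrate H-DVal-Leu-Arg-AFC and a range of test compound concentrations. Residual activity was taken as initial reaction rate from absorbance change at 410 nm, and the IC50 derived from it.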

[4] = fluorogenic substrate H-DPro-Phe-Arg-AFC

solubility in PO4 buffer [1] [µM]	IC50 [2, 4] [nM]	IC50 ([2]; substrate H-DPro-Phe-Arg-AFC) [nM]	IC50 ([3]; Table 13) [nM]	SMILES	other results
> 235	89	–	–	CCOc1ccc(C[C@@H](NC(=O)CC)C(=O)N[C@@H](Cc2ccccc2)C(=O)NCc2ccc(CN)cc2)cc1 [Example 1, (S)—N-(4-Aminomethyl-benzyl)-2-[(R)-3-(4-ethoxy-phenyl)-2-propionylamino-propionylamino]-3-phenyl-propionamide]	IC50 ([3]; Table 12): > 1000 nM
> 235	820	–	–	CCOc1ccc(C[C@@H](NS(C)(=O)=O)C(=O)N[C@@H](Cc2ccccc2)C(=O)NCc2ccc(CN)cc2)cc1 [Example 2, (R)—N—[(S)-1-(4-Aminomethyl-benzylcarbamoyl)-2-phenyl-ethyl]-3-(4-ethoxy-phenyl)-2-methanesulfonylamino-propionamide]	–
> 235	230	–	–	NCc1ccc(CNC(=O)[C@H](Cc2ccccc2)NC(=O)[C@@H](CC2CCCCC2)NCC(=O)O)cc1 [Example 4, {(R)-1-[(S)-1-(4-Aminomethyl-benzylcarbamoyl)-2-phenyl-ethylcarbamoyl]-2-cyclohexyl-ethylamino}-acetic acid]	IC50 ([3]; Table 12): > 10000 nM
> 235	460	–	–	CCOc1ccc(C[C@@H](N)C(=O)N[C@@H](Cc2ccccc2)C(=O)NCc2ccc(CN)cc2)cc1 [Example 5, (R)-2-Amino-N-[(S)-1-(4-aminomethyl-benzylcarbamoyl)-2-phenyl-ethyl]-3-(4-ethoxy-phenyl)-propionamide]	IC50 ([3]; Table 12): 160 nM
> 235	–	–	–	NCc1ccc(CNC(=O)[C@H](Cc2ccccc2)NC(=O)[C@H](N)CC2CCCCC2)cc1 [Example 8, (R)-2-Amino-N-[(S)-1-(4-aminomethyl-benzylcarbamoyl)-2-phenyl-ethyl]-3-cyclohexyl-propionamide]	–
> 235	7200	–	–	CCC(=O)N[C@H](CC1CCCCC1)C(=O)N[C@@H](Cc1ccccc1)C(=O)NCc1ccc(CN)cc1 [Example 10, (S)-N-(4-Aminomethyl-benzyl)-2-((R)-3-cyclohexyl-2-propionylamino-propionylamino)-3-phenyl-propionamide]	–
> 235	1700	–	–	CS(=O)(=O)N[C@H](CC1CCCCC1)C(=O)N[C@@H](Cc1ccccc1)C(=O)NCc1ccc(CN)cc1 [Example 11, (R)-N-[(S)-1-(4-Aminomethyl-benzylcarbamoyl)-2-phenyl-ethyl]-3-cyclohexyl-2-methanesulfonylamino-propionamide]	–
> 235	290	–	–	CCOc1ccc(C[C@@H](NC(=O)CC)C(=O)N[C@@H](Cc2ccccc2)C(=O)NCc2ccc(CN)cc2Cl)cc1 [Example 12, (S)-N-(4-Aminomethyl-2-chloro-benzyl)-2-[(R)-3-(4-ethoxy-phenyl)-2-propionylamino-propionylamino]-3-phenyl-propionamide]	–
–	10000	–	–	CCOc1ccc(C[C@@H](NC(=O)c2ccc(-c3ccccc3)cc2)C(=O)N[C@@H](Cc2ccccc2)C(=O)NCc2ccc(CN)cc2)cc1 [Example 57, Biphenyl-4-carboxylic acid [(R)-1-[(S)-1-(4-aminomethyl-benzylcarbamoyl)-2-phenyl-ethylcarbamoyl]-2-(4-ethoxy-phenyl)-ethyl]-amide]	solubility ([1]; pH 7, aqueous buffer, kinetic from dmso stock): 36 µM (≈ 23.6 µg/mL)
> 235	220	–	–	CCOc1ccc(C[C@@H](N)C(=O)N[C@H](C(=O)NCc2ccc(CN)cc2)[C@@H](O)c2ccccc2)cc1 [Example 61, (R)-2-Amino-N-[(1S,2S)-1-(4-aminomethyl-benzylcarbamoyl)-2-hydroxy-2-phenyl-ethyl]-3-(4-ethoxy-phenyl)-propionamide]	–
> 235	52	–	–	CCOc1ccc(C[C@@H](NC(=O)CC)C(=O)N[C@H](C(=O)NCc2ccc(CN)cc2)[C@@H](O)c2ccccc2)cc1 [Example 63, (2S,3S)-N-(4-Aminomethyl-benzyl)-2-[(R)-3-(4-ethoxy-phenyl)-2-propionylamino-propionylamino]-3-hydroxy-3-phenyl-propionamide]	–
> 235	3400	–	–	CCOc1ccc(C[C@@H](NC(=O)CC)C(=O)N(CC)[C@H](Cc2ccccc2)C(=O)NCc2ccc(CN)cc2)cc1 [Example 64, (R)-N-(4-Aminomethyl-benzyl)-2-{[(R)-3-(4-ethoxy-phenyl)-2-propionylamino-propionyl]-ethyl-amino}-3-phenyl-propionamide]	–
–	–	49	6900	CCOc1ccc(C[C@@H](NC(=O)c2ccncc2)C(=O)N[C@@H](Cc2ccc(F)c(F)c2)C(=O)NCc2ccc(CN)cc2)cc1 [Example 161, N-[(R)-1-[(S)-1-(4-Aminomethyl-benzylcarbamoyl)-2-(3,4-difluoro-phenyl)-ethylcarbamoyl]-2-(4-ethoxy-phenyl)-ethyl]-isonicotinamide]	–
–	–	64	> 10000	CCOc1ccc(C[C@@H](NC(=O)c2ccc(Cl)cc2)C(=O)N[C@@H](Cc2ccccn2)C(=O)NCc2ccc(CN)cc2)cc1 [Example 163, N-[(R)-1-[(S)-1-(4-Aminomethyl-benzylcarbamoyl)-2-pyridin-2-yl-ethylcarbamoyl]-2-(4-ethoxy-phenyl)-ethyl]-4-chloro-benzamide]	–
–	–	50	> 10000	CCOc1ccc(C[C@@H](NC(=O)c2ccc(C)cc2)C(=O)N[C@@H](Cc2ccccn2)C(=O)NCc2ccc(CN)cc2)cc1 [Example 164, N-[(R)-1-[(S)-1-(4-Aminomethyl-benzylcarbamoyl)-2-pyridin-2-yl-ethylcarbamoyl]-2-(4-ethoxy-phenyl)-ethyl]-4-methyl-benzamide]	–
–	–	70	> 10000	CCOc1ccc(C[C@@H](NC(=O)c2ccccn2)C(=O)N[C@@H](Cc2ccc(Cl)c(Cl)c2)C(=O)NCc2ccc(CN)cc2)cc1 [Example 165, Pyridine-2-carboxylic acid [(R)-1-[(S)-1-(4-aminomethyl-benzylcarbamoyl)-2-(3,4-dichloro-phenyl)-ethylcarbamoyl]-2-(4-ethoxy-phenyl)-ethyl]-amide]	–
–	–	262	> 10000	CCOc1ccc(C[C@@H](NC(=O)CC)C(=O)N[C@@H](Cc2ccccn2)C(=O)NCc2ccc(CN)cc2)cc1 [Example 166, (R)-N-[(S)-1-(4-Aminomethyl-benzylcarbamoyl)-2-pyridin-2-yl-ethyl]-3-(4-ethoxy-phenyl)-2-propionylamino-propionamide]	–
–	–	80	> 10000	CCOc1ccc(C[C@@H](NC(=O)c2ccncc2)C(=O)N[C@@H](Cc2ccccc2)C(=O)NCc2ccc(CN)c(F)c2)cc1 [Example 167, N-[(R)-1-[(S)-1-(4-Aminomethyl-3-fluoro-benzylcarbamoyl)-2-phenyl-ethylcarbamoyl]-2-(4-ethoxy-phenyl)-ethyl]-isonicotinamide]	–
–	–	76	> 10000	CCOc1ccc(C[C@@H](NC(=O)c2ccccn2)C(=O)N[C@@H](Cc2ccccc2)C(=O)NCc2ccc(CN)c(F)c2)cc1 [Example 168, Pyridine-2-carboxylic acid [(R)-1-[(S)-1-(4-aminomethyl-3-fluoro-benzylcarbamoyl)-2-phenyl-ethylcarbamoyl]-2-(4-ethoxy-phenyl)-ethyl]-amide]	–
–	–	44	9900	CCOc1ccc(C[C@@H](NC(=O)c2cccs2)C(=O)N[C@@H](Cc2ccc(Cl)c(Cl)c2)C(=O)NCc2ccc(CN)cc2)cc1 [Example 169, Thiophene-2-carboxylic acid [(R)-1-[(S)-1-(4-aminomethyl-benzylcarbamoyl)-2-(3,4-dichloro-phenyl)-ethylcarbamoyl]-2-(4-ethoxy-phenyl)-ethyl]-amide]	–
–	–	51	> 10000	CCOc1ccc(C[C@@H](NC(=O)CC)C(=O)N[C@@H](Cc2cccnc2)C(=O)NCc2ccc(CN)cc2)cc1 [Example 170, (R)-N-[(S)-1-(4-Aminomethyl-benzylcarbamoyl)-2-pyridin-3-yl-ethyl]-3-(4-ethoxy-phenyl)-2-propionylamino-propionamide]	–
–	–	123	9400	CCOc1ccc(C[C@@H](NC(=O)c2ccncc2)C(=O)N[C@@H](Cc2ccc(Cl)c(Cl)c2)C(=O)NCc2ccc(CN)cc2)cc1 [Example 171, N-[(R)-1-[(S)-1-(4-Aminomethyl-benzylcarbamoyl)-2-(3,4-dichloro-phenyl)-ethylcarbamoyl]-2-(4-ethoxy-phenyl)-ethyl]-isonicotinamide]	–
–	–	881	> 10000	CCOc1ccc(C[C@@H](NC(=O)CC(F)(F)F)C(=O)N[C@@H](Cc2ccc(Cl)c(Cl)c2)C(=O)NCc2ccc(CN)cc2)cc1 [Example 172, N-[(R)-1-[(S)-1-(4-Aminomethyl-benzylcarbamoyl)-2-(3,4-dichloro-phenyl)-ethylcarbamoyl]-2-(4-ethoxy-phenyl)-ethyl]-3,3,3-trifluoro-propionamide]	–
–	–	457	> 10000	CCOc1ccc(C[C@@H](NC(=O)c2ccccc2)C(=O)N[C@@H](Cc2c[nH]cn2)C(=O)NCc2ccc(CN)cc2)cc1 [Example 177, N-[(R)-1-[(S)-1-(4-Aminomethyl-benzylcarbamoyl)-2-(1H-imidazol-4-yl)-ethylcarbamoyl]-2-(4-ethoxy-phenyl)-ethyl]-benzamide]	–
–	–	73	> 10000	CCOc1ccc(C[C@@H](NC(=O)c2ccccc2)C(=O)N[C@@H](Cc2ccccc2F)C(=O)NCc2ccc(CN)cc2)cc1 [Example 180, N-[(R)-1-[(S)-1-(4-Aminomethyl-benzylcarbamoyl)-2-(2-fluoro-phenyl)-ethylcarbamoyl]-2-(4-ethoxy-phenyl)-ethyl]-benzamide]	–
